From paper PMC11882969 (Nature Communications, 2025)
Where “and” joins values, the source holds several entries; their conditions need not be identical. Equal entries are not always repeated. Where two headings read alike, the source gives them in different places.

Tests used:
hCB1 = hCB1 (Homo sapiens, UniProt P21554); experiment: bioSensAll ebBRET signaling profiling, hCB1; format: cell-based; set-up: host or cells: HEK293SL cells, transient PEI transfection; details: for Gi1 hCB1 response: Gi1 biosensor; for Gi1 hCB1 / GoB hCB1: single replicate values, FigS6a; for EC50: read-out: EC50 [95% CI]; for Emax: normalized to CP-55,940
CB1 (rCB1) [1] = biological target: T1, CB1 (rCB1) (Rattus norvegicus, UniProt P20272); experiment: Single-point radioligand displacement screen; format: binding; details: 10 µM, 1 µM or 300 nM by cell colour (not visible)
CB1 (rCB1) [2] = biological target: T1, CB1 (rCB1); experiment: Radioligand competition binding, [3H]-CP-55,940, rat brain membranes

T1 sequence (P20272 whole entry): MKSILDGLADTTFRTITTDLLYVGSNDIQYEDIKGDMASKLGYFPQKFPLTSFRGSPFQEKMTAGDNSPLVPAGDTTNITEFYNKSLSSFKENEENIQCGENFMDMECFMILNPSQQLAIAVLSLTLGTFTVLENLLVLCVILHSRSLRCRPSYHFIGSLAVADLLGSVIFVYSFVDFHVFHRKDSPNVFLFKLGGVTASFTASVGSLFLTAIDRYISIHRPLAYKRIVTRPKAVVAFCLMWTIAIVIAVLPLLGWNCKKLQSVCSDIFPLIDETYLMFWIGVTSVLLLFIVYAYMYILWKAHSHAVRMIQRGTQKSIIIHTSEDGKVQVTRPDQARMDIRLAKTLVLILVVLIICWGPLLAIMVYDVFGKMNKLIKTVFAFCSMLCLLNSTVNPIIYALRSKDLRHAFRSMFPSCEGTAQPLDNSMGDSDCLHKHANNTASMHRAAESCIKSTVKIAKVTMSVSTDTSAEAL
hCB1, sequence (P21554 whole entry): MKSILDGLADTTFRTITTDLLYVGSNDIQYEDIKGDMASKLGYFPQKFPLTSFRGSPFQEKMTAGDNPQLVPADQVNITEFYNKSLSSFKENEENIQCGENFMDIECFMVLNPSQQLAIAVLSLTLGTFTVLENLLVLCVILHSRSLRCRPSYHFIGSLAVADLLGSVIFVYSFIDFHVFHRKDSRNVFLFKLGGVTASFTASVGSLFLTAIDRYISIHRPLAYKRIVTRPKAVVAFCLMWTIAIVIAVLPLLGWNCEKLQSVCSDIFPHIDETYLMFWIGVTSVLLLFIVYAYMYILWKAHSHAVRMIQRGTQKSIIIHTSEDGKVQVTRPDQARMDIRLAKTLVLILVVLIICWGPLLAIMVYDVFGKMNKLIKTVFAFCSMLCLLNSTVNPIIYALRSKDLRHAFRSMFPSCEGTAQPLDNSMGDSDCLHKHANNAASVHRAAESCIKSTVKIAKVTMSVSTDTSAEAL

Compound: Cc1cc(C(=O)NC(c2ccccc2)c2ccco2)nn1-c1cccc(C#N)c1 (stereo not drawn) [‘12565]
- Gi1 hCB1 response (hCB1; Log [Compound] (M) -4.22186): 51.3091
- Gi1 hCB1 response (hCB1; Log [Compound] (M) -4.63927): 50.5034
- Gi1 hCB1 response (hCB1; Log [Compound] (M) -5.05788): 44.5052
- Gi1 hCB1 response (hCB1; Log [Compound] (M) -5.47381): 43.9457
- Gi1 hCB1 response (hCB1; Log [Compound] (M) -5.89285): 42.849
- Gi1 hCB1 response (hCB1; Log [Compound] (M) -6.31878): 33.2921
- Gi1 hCB1 response (hCB1; Log [Compound] (M) -6.72585): 46.4524
- Gi1 hCB1 response (hCB1; Log [Compound] (M) -7.14267): 19.6618
- Gi1 hCB1 response (hCB1; Log [Compound] (M) -7.55284): 13.0593
- Gi1 hCB1 response (hCB1; Log [Compound] (M) -8): 11.2688
- Gi1 hCB1 response (hCB1; Log [Compound] (M) -8.22186): -3.794
- Gi1 hCB1 response (hCB1; Log [Compound] (M) -8.39794): -8.2031
- Gi1 hCB1 response (hCB1; Log [Compound] (M) -8.68787): -4.197
- Gi1 hCB1 response (hCB1; Log [Compound] (M) -9.15521): -12.5675
- Gi1 hCB1 response (hCB1; Log [Compound] (M) -9.61989): -10.195
- Gi1 hCB1 response (hCB1; Log [Compound] (M) -10.0969): -5.294
- Gi1 hCB1 response (hCB1; Log [Compound] (M) -10.5529): 14.9617
- Gi1 hCB1 response (hCB1; Log [Compound] (M) -11.0177): -2.317
- Gi1 hCB1 response (hCB1; Log [Compound] (M) -11.4949): 8.247
- Gi1 hCB1 response (hCB1; Log [Compound] (M) -11.9208): -0.5263
- Gi1 hCB1 response (hCB1; Log [Compound] (M) -12.3979): -10.9113
- Gi1 hCB1 response (hCB1; Log [Compound] (M) -12.8861): -6.234
- Gi1 hCB1 response (hCB1; Log [Compound] (M) -13, individual replicate values): 1.98 and -17.5585
- Gi1 hCB1 (hCB1; Log [Compound] (M) -4.22186): 25.3414
- GoB hCB1 (hCB1; Log [Compound] (M) -4.22186): 15.9048
- Gi1 hCB1 (hCB1; Log [Compound] (M) -4.63927): 29.288
- GoB hCB1 (hCB1; Log [Compound] (M) -4.63927): 18.0268
- Gi1 hCB1 (hCB1; Log [Compound] (M) -5.05788): 28.8564
- GoB hCB1 (hCB1; Log [Compound] (M) -5.05788): 28.8528
- Gi1 hCB1 (hCB1; Log [Compound] (M) -5.47381): 27.1451
- GoB hCB1 (hCB1; Log [Compound] (M) -5.47381): 28.2953
- Gi1 hCB1 (hCB1; Log [Compound] (M) -5.89285): 25.0947
- GoB hCB1 (hCB1; Log [Compound] (M) -5.89285): 22.0012
- Gi1 hCB1 (hCB1; Log [Compound] (M) -6.31878): 21.0402
- GoB hCB1 (hCB1; Log [Compound] (M) -6.31878): 26.4251
- Gi1 hCB1 (hCB1; Log [Compound] (M) -6.72585): 17.7873
- GoB hCB1 (hCB1; Log [Compound] (M) -6.72585): 22.6665
- Gi1 hCB1 (hCB1; Log [Compound] (M) -7.14267): 12.2681
- GoB hCB1 (hCB1; Log [Compound] (M) -7.14267): 15.689
- Gi1 hCB1 (hCB1; Log [Compound] (M) -7.55284): 6.888
- GoB hCB1 (hCB1; Log [Compound] (M) -7.55284): 4.557
- Gi1 hCB1 (hCB1; Log [Compound] (M) -8): 2.772
- GoB hCB1 (hCB1; Log [Compound] (M) -8): 1.9857
- Gi1 hCB1 (hCB1; Log [Compound] (M) -8.22186): 1.492
- GoB hCB1 (hCB1; Log [Compound] (M) -8.22186): -4.416
- Gi1 hCB1 (hCB1; Log [Compound] (M) -8.39794): 0.9061
- GoB hCB1 (hCB1; Log [Compound] (M) -8.39794): -0.9096
- Gi1 hCB1 (hCB1; Log [Compound] (M) -8.68787): 1.4611
- GoB hCB1 (hCB1; Log [Compound] (M) -8.68787): -4.902
- Gi1 hCB1 (hCB1; Log [Compound] (M) -9.15521): 0.4436
- GoB hCB1 (hCB1; Log [Compound] (M) -9.15521): -2.744
- Gi1 hCB1 (hCB1; Log [Compound] (M) -9.61989): -1.406
- GoB hCB1 (hCB1; Log [Compound] (M) -9.61989): -3.949
- Gi1 hCB1 (hCB1; Log [Compound] (M) -10.0969): 0.8444
- GoB hCB1 (hCB1; Log [Compound] (M) -10.0969): -5.531
- Gi1 hCB1 (hCB1; Log [Compound] (M) -10.5529): -0.3889
- GoB hCB1 (hCB1; Log [Compound] (M) -10.5529): 0.1334
- Gi1 hCB1 (hCB1; Log [Compound] (M) -11.0177): -1.067
- GoB hCB1 (hCB1; Log [Compound] (M) -11.0177): 0.2053
- Gi1 hCB1 (hCB1; Log [Compound] (M) -11.4949): 0.2894
- GoB hCB1 (hCB1; Log [Compound] (M) -11.4949): -1.809
- Gi1 hCB1 (hCB1; Log [Compound] (M) -11.9208): -1.221
- GoB hCB1 (hCB1; Log [Compound] (M) -11.9208): -1.251
- Gi1 hCB1 (hCB1; Log [Compound] (M) -12.3979): 0.4282
- GoB hCB1 (hCB1; Log [Compound] (M) -12.3979): 0.1334
- Gi1 hCB1 (hCB1; Log [Compound] (M) -12.8861): 1.43
- GoB hCB1 (hCB1; Log [Compound] (M) -12.8861): -3.211
- Gi1 hCB1 (hCB1; Log [Compound] (M) -13): 1.507 and -0.6201
- GoB hCB1 (hCB1; Log [Compound] (M) -13): -3.409 and -2.942
- pEC50 [95% CI] (hCB1; hCB1 Gi1): 7.0 [6.9 – 7.1]
- pEC50 [95% CI] (hCB1; hCB1 GoB): 7.4 [7.1 – 7.6]
- pEC50 [95% CI] (hCB1; hCB1 Gz): 7.3 [6.9 – 7.7]
- EC50 (hCB1; hCB1 Gi1): 104 nM
- EC50 (hCB1; hCB1 GoB): 44.8 nM
- EC50 (hCB1; hCB1 Gz): 54.6 nM
- Emax (hCB1; read-out: Emax [95% CI], hCB1 Gi1): 28%
- Emax (hCB1; read-out: Emax [95% CI], hCB1 GoB): 25%
- Emax (hCB1; read-out: Emax [95% CI], hCB1 Gz): 51%
- % 1H-CP-55,940 displacement (mean) from single point screen (CB1 (rCB1) [1]): 61.12%
- pKi [95% CI] (CB1 (rCB1) [2]; rCB1): 6.5 [6.3 – 6.7]
- Ki (CB1 (rCB1) [2]; read-out: Ki [95% CI], rCB1, [3H]-CP-55,940): 301 nM
